The record followed here is ChEMBL document CHEMBL4339212, “Novel 7-formyl-naphthyridyl-ureas derivatives as potential selective FGFR4 inhibitors: Design, synthesis, and biological activity studies” (Bioorg Med Chem, 2019).

Where only a bound is given, the exact number is not on record here.

Data set [1] relates to Hep 3B2. Nature of the data set: cells. Conditions: Homo sapiens, Hep3B, 72 h.
Data set [2] relates to Huh-7. The data set is described as follows: Antitumor activity against human HuH7 cells xenografted in nude BALB/c mouse assessed as inhibition of tumor growth at 30 mg/kg bid for 14 days and measured twice per week relative to untreated control. Conditions: Huh-7, 336 h, read-out: TGI. Format: functional.
Data set [3] has as its system Hep 3B2. The data set is described as follows: Antitumor activity against human Hep3B cells xenografted in nude BALB/c mouse assessed as inhibition of tumor growth at 10 mg/kg bid for 14 days and measured twice per week relative to untreated control. Conditions: 336 h, read-out: TGI. Format: functional. Background: Xenograft models place foreign cells or tissue in a host animal.

Data set [4] has as its system Huh-7. The data set is described as follows: cells. Conditions: Homo sapiens, Huh-7, 72 h.
Data set [5] concerns the target Fibroblast growth factor receptor 1 (Homo sapiens, UniProt P11362). The data set is described as follows: Inhibition of FGFR1 (unknown origin) incubated for 60 mins by caliper microfluidic mobility shift technology based assay.
Data set [6] relates to SK-HEP1. Nature of the data set: Antiproliferative activity against human SKHEP1 cells without FGFR4 gene amplification assessed as inhibition of cell proliferation incubated for 72 hrs by CellTiter-Glo method. Particulars: SK-HEP1, 72 h. Format: functional, cell-based. (Cellular ATP, detected with luciferase, serves as a proxy for viable cell number.)
Data set [7] can be described thus: AUC in Sprague-Dawley rat at 5 mg/kg, ig measured after 5 mins to 24 hrs by LC-MS analysis. Particulars: in vivo, po. Format: ADME, organism-based. On the set-up: dose 5 mg/kg, time 0.083-24 hr, route […].
The nature of data set [8]: Cmax in Sprague-Dawley rat at 5 mg/kg, ig measured after 5 mins to 24 hrs by LC-MS analysis. Format: ADME, organism-based. The arrangement: dose 5 mg/kg, route […]. Particulars: in vivo, po.
The nature of data set [9]: Half life in Sprague-Dawley rat at 5 mg/kg, ig measured after 5 mins to 24 hrs by LC-MS analysis. Format: ADME, organism-based. Particulars: in vivo, po.
Data set [10] is described as follows: Mean residence time in Sprague-Dawley rat at 5 mg/kg, ig measured after 5 mins to 24 hrs by LC-MS analysis. Format: ADME, organism-based. Conditions: in vivo, po.

Fibroblast growth factor receptor 1, sequence (P11362 whole entry): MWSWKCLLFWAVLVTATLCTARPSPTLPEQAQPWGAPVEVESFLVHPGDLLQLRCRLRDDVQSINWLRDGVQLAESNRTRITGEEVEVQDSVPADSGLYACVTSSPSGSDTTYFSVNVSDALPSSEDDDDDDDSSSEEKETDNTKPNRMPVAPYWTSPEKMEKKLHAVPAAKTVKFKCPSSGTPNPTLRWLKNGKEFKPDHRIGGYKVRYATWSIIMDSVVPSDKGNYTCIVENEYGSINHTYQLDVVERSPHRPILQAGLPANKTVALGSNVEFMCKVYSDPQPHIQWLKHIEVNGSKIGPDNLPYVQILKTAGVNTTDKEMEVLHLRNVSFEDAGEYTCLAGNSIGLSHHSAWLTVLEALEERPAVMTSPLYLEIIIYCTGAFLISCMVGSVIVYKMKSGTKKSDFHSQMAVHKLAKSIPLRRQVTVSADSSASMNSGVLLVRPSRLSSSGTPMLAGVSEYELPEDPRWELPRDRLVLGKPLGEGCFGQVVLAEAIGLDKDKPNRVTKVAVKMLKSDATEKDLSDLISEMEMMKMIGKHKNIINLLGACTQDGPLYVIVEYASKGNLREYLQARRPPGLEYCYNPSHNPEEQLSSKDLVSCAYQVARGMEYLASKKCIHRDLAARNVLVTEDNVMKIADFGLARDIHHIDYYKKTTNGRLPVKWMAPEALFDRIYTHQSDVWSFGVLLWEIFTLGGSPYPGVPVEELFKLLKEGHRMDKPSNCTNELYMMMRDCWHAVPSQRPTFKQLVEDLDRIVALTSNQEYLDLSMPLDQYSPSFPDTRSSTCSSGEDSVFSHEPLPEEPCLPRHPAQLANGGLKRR

The term IC50 denotes the midpoint of a concentration-inhibition curve. With `COCCNc1cc(NC(=O)N2CCCc3cc(CN4CCN(C)CC4=O)c(C=O)nc32)ncc1C#N` [FGF401], the IC50 in data set [1] is 8.8 nM; in [4] it was 16.3 nM. The inhibition in vivo at 30 mg/kg in data set [2] turned out to be 52.5%. For the same compound, the inhibition in vivo at 10 mg/kg in data set [3] is 85.9%.

Usually AUC stands for concentration integrated over time. Low readings indicate low exposure, high ones high exposure. As for `COCCNc1cc(NC(=O)N2CCCc3cc(CN4CC[C@@H](OC)C4=O)c(C=O)nc32)ncc1C#N`, the IC50 in data set [1] is 1.9 nM; in data set [5], more than 10 µM; in data set [6], more than 10 µM; in data set [4], 8.3 nM. Further, the AUC in [7] worked out at 12300 ng·h/mL.

As for `COC[C@@H](C)Oc1cc(NC(=O)N2CCCc3cc(CN4CCCCOC4=O)c(C=O)nc32)ncc1C#N`, the concentration for half-maximal inhibition (IC50) is 2.2 nM in [1], more than 10 µM in data set [5], more than 10 µM in [6] and 4.6 nM in data set [4].

A word on the Cmax: it is the peak of the concentration-time curve. For orientation: half-life means the time needed for the level to fall by half in the phase considered. A high value points to slow decline. The MRT is a mean duration of stay, worked out from the concentration-time curve. For the compound `CO[C@H]1CCN(c2cc(NC(=O)N3CCCc4cc(CN5CCOCC5=O)c(C=O)nc43)ncc2C#N)C1`, the IC50 was 24.9 nM in data set [1], more than 10 µM in data set [5], more than 10 µM in data set [6] and 27.5 nM in data set [4]. The peak level in [8] (Cmax) was 3360 ng/mL. Also, in [9], the half-life was 72 min. In data set [7], this compound displayed an AUC of 14700 ng·h/mL. This compound also came in with an MRT in data set [10] of 2.6 h.

On to `COC[C@H](C)Nc1cc(NC(=O)N2CCCc3cc(CN4CC[C@H](OC)C4=O)c(C=O)nc32)ncc1C#N`, for which the IC50 in data set [1] is 13.6 nM; in [5], more than 10 µM; in data set [6], more than 10 µM; in data set [4] it was 40.5 nM.

Consider `COCCSc1cc(NC(=O)N2CCCc3cc(CN4CCOCC4=O)c(C=O)nc32)ncc1C#N`, for which the IC50 in data set [1] is 20.8 nM; in data set [5], more than 10 µM; in [6], more than 10 µM; in data set [4], 32.2 nM.

Turning to `CO[C@H]1CCN(c2cc(NC(=O)N3CCCc4cc(CN5C(=O)OC[C@@H]5C)c(C=O)nc43)ncc2C#N)C1`, the IC50 is 39.3 nM in [1], more than 10 µM in [5], more than 10 µM in [6] and 34.6 nM in [4].

Regarding `CO[C@H]1CCN(c2cc(NC(=O)N3CCCc4cc(CN5CCOC5=O)c(C=O)nc43)ncc2C#N)C1`, the IC50 is 38.7 nM in [1], more than 10 µM in [5], more than 10 µM in data set [6] and 29.6 nM in data set [4].

For the compound `COc1ccccc1Oc1cc(NC(=O)N2CCCc3cc(CN4CCOCC4=O)c(C=O)nc32)ncc1C#N`, the IC50 in data set [1] was 46 nM; in [5] it was more than 10 µM; in data set [6] it was more than 10 µM; in data set [4] it was 69 nM.

With `COCCNc1cc(NC(=O)N2CCCc3cc(CN4CC[C@H](OC)C4=O)c(C=O)nc32)ncc1C#N`, the IC50 was 2.3 nM in [1], more than 10 µM in data set [5], more than 10 µM in [6] and 9 nM in data set [4]. The AUC in [7] came to 11300 ng·h/mL.

Regarding `CO[C@@H]1CCN(Cc2cc3c(nc2C=O)N(C(=O)Nc2cc(N[C@@H]4CCOC4)c(C#N)cn2)CCC3)C1=O`, the IC50 in data set [1] is 1.8 nM; in data set [5], more than 10 µM; in data set [6], more than 10 µM; in [4], 5.4 nM.

As to `CO[C@@H]1CCC[C@H]1Nc1cc(NC(=O)N2CCCc3cc(CN4CCOCC4=O)c(C=O)nc32)ncc1C#N`, the IC50 in data set [1] is 1 nM; in [5], more than 10 µM; in data set [6], more than 10 µM; in data set [4], 2.7 nM.

In the case of `N#Cc1cnc(NC(=O)N2CCCc3cc(CN4CCCCOC4=O)c(C=O)nc32)cc1N[C@@H]1CCOC1`, the IC50 in data set [1] was 2.3 nM; in data set [5], more than 10 µM; in [6], more than 10 µM; in data set [4] it was 4.9 nM.

For the compound `N#Cc1cnc(NC(=O)N2CCCc3cc(CN4CCCCOC4=O)c(C=O)nc32)cc1N[C@H]1CCOC1`, the IC50 in data set [1] is 3.7 nM; in [5], more than 10 µM; in data set [6], more than 10 µM; in data set [4] it was 7.2 nM.

Turning to `N#Cc1cnc(NC(=O)N2CCCc3cc(CN4CCOCC4=O)c(C=O)nc32)cc1S[C@@H]1CCOC1`, the IC50 in data set [1] is 22.7 nM; in [5], more than 10 µM; in data set [6] it was more than 10 µM; in data set [4] it was 50.1 nM. In data set [7], the AUC was determined as 6780 ng·h/mL.

Take `COC[C@@H]1CCCN1c1cc(NC(=O)N2CCCc3cc(CN4CCOCC4=O)c(C=O)nc32)ncc1C#N`: the IC50 in data set [1] was 22.9 nM; in data set [5], more than 10 µM; in [6], more than 10 µM; in data set [4], 65.3 nM.

For the compound `CN(C)C1CCN(c2cc(NC(=O)N3CCCc4cc(CN5CCOCC5=O)c(C=O)nc43)ncc2C#N)C1` (stereo not drawn), the IC50 was 93.8 nM in data set [1], more than 10 µM in data set [5], more than 10 µM in [6] and 297 nM in [4].

For the compound `CO[C@@H]1CCN(c2cc(NC(=O)N3CCCc4cc(CN5CCOC5=O)c(C=O)nc43)ncc2C#N)C1`, the IC50 in data set [1] was 9.9 nM; in data set [5], more than 10 µM; in [6], more than 10 µM; in [4] it was 10.2 nM.

With `COCCOc1cc(NC(=O)N2CCCc3cc(CN4CCOCC4=O)c(C=O)nc32)ncc1C#N`, the IC50 in data set [1] is 27.7 nM; in data set [5] it was more than 10 µM; in [6] it was more than 10 µM; in data set [4], 51.8 nM.

As to `COc1ccncc1Nc1cc(NC(=O)N2CCCc3cc(CN4CCOCC4=O)c(C=O)nc32)ncc1C#N`, the IC50 in data set [1] was 69 nM; in data set [5], more than 10 µM; in [6] it was more than 10 µM; in data set [4] it was 20.7 nM.

As to `CO[C@@H]1CCN(c2cc(NC(=O)N3CCCc4cc(CN5C(=O)OC[C@@H]5C)c(C=O)nc43)ncc2C#N)C1`, the IC50 in data set [1] was 13.3 nM; in data set [5] it was more than 10 µM; in data set [6] it was more than 10 µM; in data set [4], 11.8 nM.

`N#Cc1cnc(NC(=O)N2CCCc3cc(CN4CCOCC4=O)c(C=O)nc32)cc1S[C@H]1CCOC1`: the IC50 in [1] is 14.5 nM; in data set [5] it was more than 10 µM; in data set [6] it was more than 10 µM; in data set [4], 36.1 nM. In data set [7], the AUC came to 1950 ng·h/mL.

`CO[C@H]1CCOC[C@@H]1Oc1cc(NC(=O)N2CCCc3cc(CN4CCOCC4=O)c(C=O)nc32)ncc1C#N`: the IC50 in data set [1] was 10.9 nM; in data set [5], more than 10 µM; in [6], more than 10 µM; in data set [4], 40.8 nM.

Turning to `COCCNc1cc(NC(=O)N2CCCc3cc(CN4CCOCC4=O)c(C=O)nc32)ncc1C#N`, the IC50 in data set [1] was 8.9 nM; in data set [5] it was more than 10 µM; in data set [6], more than 10 µM; in data set [4] it was 17.3 nM.

As to `COC[C@@H](C)Oc1cc(NC(=O)N2CCCc3cc(CN4CCOCC4=O)c(C=O)nc32)ncc1C#N`, the IC50 in [1] was 2.9 nM; in data set [5] it was more than 10 µM; in [6], more than 10 µM; in data set [4] it was 7.8 nM.
